# Test results published in patent US4462992A, “Nitroimidazole radiosensitizers for hypoxic tumor cells and compositions thereof” (priority 1982, dated 1984).
# What was measured:
# [1] = In vitro cytotoxicity in oxic cells (% survival); type: cell-based, Chinese hamster; settings: hamster, v-79 cells, oxic, 2 hours, read-out: In vitro cytoxicity in oxic cells (% survival at 2 hours); for viability at 2 h, 100 µM: 0.1 mM; for viability at 2 h, 500 µM: 0.5 mM; for viability at 2 h, 1000 µM: 1.0 mM; for viability at 2 h, 5000 µM: 5.0 mM
# Method: (§1) Asynchronous monolayers of cultures of Chinese hamster cells line V-79 were employed in all experiments. The monolayers were derived from exponentially growing cultures. Methods of culturing and handling have been reported earlier by Cooke et al, Rad. Res. 65, 152 (1976). The plated cultures were rendered hypoxic in sealed dural containers capable of holding seven petri dishes, by purging with nitrogen (oxygen-free grade) for one hour. Irradiation was carried out by using a cobalt-60 source at a dose rate of approximately 240 rad/min according to the procedure described by Agrawal et al Rad. Res. 78:532 (1979). A dose of 1400 rad was given to hypoxic cells in glass petri dishes in the presence of a given drug concentration (2000 cells/dish). Cell survival was estimated from unirradiated toxic hypoxic cells exposed to the same drug concentration. Complete survival curves were obtained for each compound at the radiation doses of 400 to 3000 rad. The Do value was calculated for each compound and the ratio of the Do value for the hypoxic control cells to the Do value of the hypoxic drug treated cells provided the sensitized enhancement ratio of the corresponding agent.
# (§2) Cultures were incubated for 6 days at 37° C. in an atmosphere of 5% CO2. The resulting colonies were fixed in absolute ethanol and stained with methylene blue and counted.
# (§3) To determine toxicity in vitro, glass petri dishes containing approximately 200 Chinese hamster cells/dish were exposed to a range of concentrations of each drug for 2 hours and/or 4 hours at 37° C. Drug concentrations between 10 μM and 0.5 mM were employed initially.
# [2] = system: Chinese hamster cells line V-79; experiment: Radiosensitization (enhancement ratio, cobalt-60 irradiation of hypoxic cells); type: cell-based
# Method: as §1, §2
# [3] = In vitro cytotoxicity in hypoxic cells (% survival); type: cell-based, Chinese hamster; settings: hamster, v-79 cells; for viability at 2 h, 50 µM / viability at 4 h, 50 µM: 0.05 mM; for viability at 2 h, 250 µM / viability at 4 h, 250 µM: 0.25 mM; for viability at 4 h, 10 µM / viability at 4 h, 50 µM / viability at 4 h, 100 µM / viability at 4 h, 250 µM: read-out: In vitro cytoxicity in hypoxic cells (% survival at 4 hours)
# Method: as §1, §2, §3
# [4] = system: Chinese hamster cells line V-79 (oxic); experiment: In vitro cytotoxicity in oxic cells (% survival); type: cell-based; settings: 2 hours
# Method: as §1, §2, §3
# hypoxic tumor cells = settings: cited from earlier work
# [5] = 2 hours, read-out: In vitro cytoxicity in hypoxic cells (% survival at 2 hours)
smiles,measurement,setting,value
"O=[N+]([O-])c1nccn1C1CCCC1O (stereo not shown) [K, 1-(2-Hydroxycyclopentyl)-2-nitroimidazole]","viability at 2 h, 100 µM",[1],112%
same,"viability at 2 h, 500 µM",[1],110%
same,"viability at 2 h, 1000 µM",[1],107%
same,"viability at 2 h, 5000 µM",[1],94.7%
same,Radiosensitization (enhancement ratio in Chinese hamster cells),[2]; 1.0 mM,2.0
"O=C(OC[C@H]1O[C@@H](n2ccnc2[N+](=O)[O-])[C@@H](OC(=O)c2ccccc2)[C@@H]1OC(=O)c1ccccc1)c1ccccc1 [F, 1(2',3',5tri-O--benzoylD-arabinofuranosyl)-2-nitroimidazole]","viability at 2 h, 10 µM","[3]; 2 hours, 0.01 mM, read-out: In vitro cytoxicity in hypoxic cells (% survival at 2 hours)",102%
same,"viability at 2 h, 50 µM",[3]; [5],102%
same,"viability at 2 h, 100 µM","[3]; 2 hours, 0.1 mM, read-out: In vitro cytoxicity in hypoxic cells (% survival at 2 hours)",97%
same,"viability at 2 h, 250 µM",[3]; [5],105%
same,"viability at 4 h, 10 µM",[3]; 0.01 mM,103%
same,"viability at 4 h, 50 µM",[3],104%
same,"viability at 4 h, 100 µM",[3]; 0.1 mM,89%
same,"viability at 4 h, 250 µM",[3],73%
same,Radiosensitization (enhancement ratio in Chinese hamster cells),[2]; 0.1 mM,1.1
"O=[N+]([O-])c1nccn1C1C[C@H](O)[C@@H](CO)O1 (stereo partly drawn) [H, 1(2-deoxy-D-erythro-pentofuranosyl)-2-nitroimidazole]",In vitro cytoxicity in oxic cells (% survival at 2 hours),[4]; 0.1 mM,95.3%
same,In vitro cytoxicity in oxic cells (% survival at 2 hours),"[4]; 0.5 mM, 120 min, 500 µM",94.2%
same,In vitro cytoxicity in oxic cells (% survival at 2 hours),"[4]; 1.0 mM, 120 min, 1000 µM",98.2%
same,In vitro cytoxicity in oxic cells (% survival at 2 hours),"[4]; 5.0 mM, 120 min, 5000 µM",81.3%
same,Radiosensitization (enhancement ratio in Chinese hamster cells),[2]; 1.0 mM,1.9
"O=[N+]([O-])c1nccn1C1O[C@H](CO)[C@@H](O)[C@@H]1O (stereo partly drawn) [D, 1(D-Arabinofuranosyl)-2-nitroimidazole]","viability at 2 h, 100 µM",[1],105%
same,"viability at 2 h, 500 µM",[1],104%
same,"viability at 2 h, 1000 µM",[1],99%
same,"viability at 2 h, 5000 µM",[1],116%
same,Radiosensitization (enhancement ratio in Chinese hamster cells),[2]; 1.0 mM,1.7
"O=[N+]([O-])c1nccn1C1C[C@H](O)[C@@H](CO)O1 (stereo partly drawn) [G, 1(2-deoxy-D-erythro-pentofuranosyl)-2-nitroimidazole]","viability at 2 h, 100 µM",[1],95.3%
same,"viability at 2 h, 500 µM",[1],88.9%
same,"viability at 2 h, 1000 µM",[1],93%
same,"viability at 2 h, 5000 µM",[1],82.4%
same,Radiosensitization (enhancement ratio in Chinese hamster cells),[2]; 1.0 mM,1.9
"O=C(OC[C@H]1O[C@H](n2ccnc2[N+](=O)[O-])[C@@H](OC(=O)c2ccccc2)[C@@H]1OC(=O)c1ccccc1)c1ccccc1 [E, 1(2',3',5tri-O--benzoylD-arabinofuranosyl)-2-nitroimidazole]","viability at 2 h, 50 µM",[3]; [5],84%
same,"viability at 2 h, 250 µM",[3]; [5],12%
same,"viability at 4 h, 10 µM",[3]; 0.01 mM,80%
same,"viability at 4 h, 50 µM",[3],76%
same,"viability at 4 h, 100 µM",[3]; 0.1 mM,46%
same,"viability at 4 h, 250 µM",[3],2.6%
same,Radiosensitization (enhancement ratio in Chinese hamster cells),[2]; 0.05 (mM not given),1.0
O=c1[nH]c(=O)n([C@H]2C[C@H](O)[C@@H](CO)O2)cc1F [5-flourodeoxyuridine],selectivity for tumor cells,hypoxic tumor cells,poor selectivity
